Test results: US20220168295A1, “RIMEGEPANT FOR CGRP RELATED DISORDERS” (Biohaven Pharmaceutical Ireland DAC, priority 2018, published 2022)

Legend:
patients with migraine = test: Study 201 (BHV3000-201) open label long-term safety study, rimegepant 75 mg oral tablet, acute treatment of migraine; assay type: in vivo, human; conditions: for >= 20.0% decrease in migraines (headache days) per month, subjects n (%) / >= 25.0% decrease in migraines (headache days) per month, subjects n (%) / >= 30.0% decrease in migraines (headache days) per month, subjects n (%) / >= 35.0% decrease in migraines (headache days) per month, subjects n (%) / >= 40.0% decrease in migraines (headache days) per month, subjects n (%) / >= 45.0% decrease in migraines (headache days) per month, subjects n (%) / >= 50.0% decrease in migraines (headache days) per month, subjects n (%): Study 201, Overall, n 1731
Method: Clinical Trial-BHV3000-201: Open Label Safety Study in Acute Treatment of Migraine (ClinicalTrials.gov Identifier: NCT 03266588) A phase 2/3 clinical study is conducted with about 2000 participants, as follows. The purpose of this study is to evaluate safety and tolerability of BHV3000 (rimegepant). • Study Type: Interventional (Clinical Trial) • Estimated Enrollment: 2000 participants • Intervention Model: Single Group Assignment • Masking: None (Open Label) • Primary Purpose: Treatment • Official Title: A Multicenter, Open Label Long-Term Safety Study of BHV3000 in the Acute Treatment of Migraine • Actual Study Start Date: Aug. 30, 2017 • Estimated Primary Completion Date: July 2019 • Estimated Study Completion Date: July 2019 [table] 1. To assess the safety and tolerability of rimegepant (BHV-3000) by measuring the frequency and severity of adverse events and discontinuations due to adverse events [Time Frame: 52 weeks] Number of subjects with treatment-emergent adverse events as assessed through laboratory tests, ECGs, physical exam findings (safety and tolerability) 1. ALT or […] with total bilirubin >2×ULN [Time Frame: 52 weeks] elevated liver function tests 2. hepatic related adverse events and hepatic related adverse events that lead to discontinuation [Time Frame: 52 weeks] adverse events related to liver

[1] = system: subjects with Acute Migraines; test: Study 302 (BHV3000-302) Phase 3 placebo-controlled trial, rimegepant 75 mg tablet, acute treatment of migraine: efficacy and safety; assay type: in vivo, human
Method: Clinical Trial—BHV3000-302: Phase 3: Double-Blind, Randomized, Placebo-Controlled, Safety and Efficacy Trial of BHV-3000 (Rimegepant) for the Acute Treatment of Migraine (ClinicalTrials.gov Identifier: NCT03237845) A phase 3 clinical study was conducted with 1503 participants, as follows. The purpose of this study is to compare the efficacy of BHV-3000 (rimegepant) versus placebo in subjects with Acute Migraines • Study Type: Interventional (Clinical Trial) • Actual Enrollment: 1503 participants • Allocation: Randomized • Intervention Model: Parallel Assignment • Intervention Model Description: Double-blind to Sponsor, Investigator and Subject • Masking: Triple (Participant, Care Provider, Investigator) • Masking Description: Double-blind to Sponsor, Investigator and Subject • Primary Purpose: Treatment • Official Title: BHV3000-302: Phase 3: Double-Blind, Randomized, Placebo-Controlled, Safety and Efficacy Trial of BHV-3000 (Rimegepant) for the Acute Treatment of Migraine • Actual Study Start Date: Jul. 26, 2017 • Primary Completion Date: Jan. 25, 2018 • Study Completion Date: Jan. 31, 2018 [table] • 1. Pain Freedom of rimegepant (75 mg tablet) compared with placebo in the acute treatment of migraine will be measured using the number of evaluable subjects that report no pain at 2 hours post-dose. [Time Frame: Two hours post dose] • Pain will be measured on a 4 point Likert scale (0=none, 1=mild, 2=moderate, 3=severe) • 2. Freedom from the most bothersome symptom (MBS) of rimegepant (75 mg tablet) compared with placebo will be measured using the number of evaluable subjects that report the absence of their MBS at 2 hours post-dose. [Time Frame: Two hours post dose] • The MBS (nausea, phonophobia or photophobia) will measured using a binary scale (0=absent, 1=present). • 1. […] [Time Frame: 2 hours −24 hours post-dose] • Sustained Pain Freedom as measured by a 4 point numeric rating scale (None, Mild, Moderate, Severe) • 2. Rimegepant (75 mg tablet) compared to placebo by tabulating the number of subjects that report the absence of photophobia at 2 hours post-dose in the subset of subjects that reported the presence of photophobia at headache baseline. [Time Frame: 2 hours post-dose] • Freedom from Photophobia • 3. Rimegepant (75 mg tablet) compared to placebo by tabulating the number of subjects that report the absence of phonophobia at 2 hours post-dose in the subset of subjects that reported the presence of phonophobia at headache baseline. [Time Frame: 2 hours post-dose] • Freedom from Phonophobia • 4. To measure rimegepant (75 mg tablet) compared to placebo on Pain Relief, at 2 hours post-dose, that report a pain level of moderate or severe at baseline and then report a pain level of none or mild. [Time Frame: 2 hours post-dose] • Pain Relief as measured by a 4 point numeric rating scale (None, Mild, Moderate, Severe) • 5. Freedom from Nausea will by tabulating the number of subjects that report the absence of nausea at 2 hours post-dose in the subset of subjects that reported the presence of nausea at headache baseline. [Time Frame: 2 hours post-dose] • Freedom from Nausea • 6. To measure rimegepant (75 mg tablet) compared to placebo on the probability of requiring rescue medication will be assessed using the number of subjects that take rescue medication within […] administration of study medication (BHV3000 or placebo). [Time Frame: up to 24 hours post-dose] • Requiring Rescue Medication • 7. […] [Time Frame: 2 hours-48 hours post-dose] • Sustained Pain Freedom as measured by a 4 point numeric rating scale (None, Mild, Moderate, Severe) • 8. […] [Time Frame: 2 hours-24 hours post-dose] • Sustained Pain Relief as measured by a 4 point numeric rating scale (None, Mild, Moderate, Severe) • 9. […] [Time Frame: 2 hours-48 hours post-dose] • Sustained Pain Relief as measured by a 4 point numeric rating scale (None, Mild, Moderate, Severe) • 10. […]

SMILES: N[C@@H]1c2cccnc2[C@H](OC(=O)N2CCC(n3c(=O)[nH]c4ncccc43)CC2)CC[C@H]1c1cccc(F)c1F [Rimegepant, [(5S,6S,9R)-5-amino-6-(2,3-difluorophenyl)-6,7,8,9-tetrahydro-5H-cyclohepta[b]pyridin-9-yl] 4-(2-oxo-3H-imidazo[4,5-b]pyridin-1-yl)piperidine-1-carboxylate]
- >= 20.0% decrease in migraines (headache days) per month, subjects n (%) (patients with migraine): 683 (39.5%) n (%)
- >= 25.0% decrease in migraines (headache days) per month, subjects n (%) (patients with migraine): 602 (34.8%) n (%)
- >= 30.0% decrease in migraines (headache days) per month, subjects n (%) (patients with migraine): 523 (30.2%) n (%)
- >= 35.0% decrease in migraines (headache days) per month, subjects n (%) (patients with migraine): 442 (25.5%) n (%)
- >= 40.0% decrease in migraines (headache days) per month, subjects n (%) (patients with migraine): 362 (20.9%) n (%)
- >= 45.0% decrease in migraines (headache days) per month, subjects n (%) (patients with migraine): 287 (16.6%) n (%)
- >= 50.0% decrease in migraines (headache days) per month, subjects n (%) (patients with migraine): 226 (13.1%) n (%)
- >= 20.0% decrease in migraines (headache days) per month, subjects n (%) (patients with migraine; listed as BHV-3000): 683 (39.5) n (%)
- >= 25.0% decrease in migraines (headache days) per month, subjects n (%) (patients with migraine; listed as BHV-3000): 602 (34.8) n (%)
- >= 30.0% decrease in migraines (headache days) per month, subjects n (%) (patients with migraine; listed as BHV-3000): 523 (30.2) n (%)
- >= 35.0% decrease in migraines (headache days) per month, subjects n (%) (patients with migraine; listed as BHV-3000): 442 (25.5) n (%)
- >= 40.0% decrease in migraines (headache days) per month, subjects n (%) (patients with migraine; listed as BHV-3000): 362 (20.9) n (%)
- >= 45.0% decrease in migraines (headache days) per month, subjects n (%) (patients with migraine; listed as BHV-3000): 287 (16.6) n (%)
- >= 50.0% decrease in migraines (headache days) per month, subjects n (%) (patients with migraine; listed as BHV-3000): 226 (13.1) n (%)
- Incidence of serum ALT or AST >3xULN (patients with migraine; Study 201 interim analysis, 75 mg up to once daily, long-term): 1.0%
- Liver safety signal (patients with migraine; Study 201 interim analysis, including near-daily dosing subset): no liver safety signal detected
- Liver cases assessed as probably related to study drug (patients with migraine; Study 201 interim analysis, independent liver panel): no liver cases
- SAEs related to the study drug [1]: No SAEs were determined to be related to the study drug
- Transaminase level greater than 3 times ULN, subjects [1]: No subject
- Adverse event urinary tract infection, incidence ([1]; 8/543): 1.5%
- Adverse event nausea, incidence ([1]; 10/543): 1.8%
- Serum ALT or AST levels greater than ULN, subjects ([1]; 13/543): 2.4%
- Proportion of patients achieving normal function at 2 hours (functional disability) versus placebo ([1]; P<0.0001): greater proportion
- Serious AEs (SAEs), number of subjects ([1]; back pain): 1 subject
